# Target: INO80 (Saccharomyces cerevisiae, UniProt P53115)
# Assay: real-time fluorescent phosphate-release ATPase assay
# Format: biochemical
# Conditions: 0.1 nM INO80; with or without 15 nM nucleosomes or DNA; 23 °C
smiles,measurement,value
Nc1ncnc2c1ncn2[C@@H]1O[C@H](COP(=O)(O)OP(=O)(O)OP(=O)(O)O)[C@@H](O)[C@H]1O [ATP],KM,"KM for the ATPase of SWR1, INO80, and SWI/SNF in the presence or absence"

# — paper PMC7251641 (Cell, 2010)
